Results published in patent US9440957B2, “Compounds and compositions for modulating EGFR Activity” (Novartis AG, priority 2012, dated 2016).
Where two headings read alike, the source gives them in different places.

What was measured:
EGFR(L858R/T790M) = molecular target: T1, EGFR(L858R/T790M) (Homo sapiens, UniProt P00533, L858R/T790M); assay: EGFR biochemical assay (HTRF), IC50 determinations
T1 construct: purchased from Carna (GST-a.a. 669-1210)
In short: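 Two formats were run: compound preincubated at room temperature with enzyme and biotin-TK peptide before ATP starts the reaction, or no preincubation with enzyme added last. Reactions ran 60 min at room temperature and were stopped with EDTA. Phosphopeptide was read by HTRF (PT66K/SAXL, 1 h).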

H1975 (EGFR L858/T790M) = H1975 (EGFR L858/T790M) (Homo sapiens, UniProt P00533, L858R/T790M); assay: EGFR target modulation in H1975 cell line (phospho-EGFR Y1173 ELISA); format: cell-based
In short: (§1)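 Cells grown in 10% FBS/RPMI, plated overnight at 37 °C, then treated with serially diluted compounds for 3 h. Lysates were analysed by sandwich ELISA (anti-EGFR capture, chemiluminescent readout).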

H3255 (EGFR L858R) = H3255 (EGFR L858R) (Homo sapiens, UniProt P00533, L858R); assay: EGFR target modulation in H3255 cell line (phospho-EGFR Y1173 ELISA); format: cell-based
In short: as §1

HCC827 (Del E746-A750) = HCC827 (Del E746-A750) (Homo sapiens, UniProt P00533, DEL746-750); assay: EGFR target modulation in HCC827 cell line (phospho-EGFR Y1173 ELISA); format: cell-based
Description: EGFR Target Modulation in H1975, H3255 and HCC827 Cell Lines Tissue Culture. Cells were maintained in 10% FBS/RPMI supplemented with 100 μg/ml Penicillin/Streptomycin (Hyclone #SH30236.01). […] The cells were allowed to incubate overnight in a 37° C., 5% CO2 humidified tissue culture incubator. […] The serial diluted compounds were transferred to the plate containing cells by using a 50 nl Pin Head device (Perkin Elmer) and the cells were placed back in the incubator for 3 hours. Phospho-EGFR ([…]) Target Modulation Assay. The media was reduced to 20 ul using a Bio-Tek ELx 405 SelectTM plate washer. […] The plates were shaken at 4° C. for 20 minutes. An aliquot of 25 ul from each well was transferred to pEGFR(Y1173) ELISA plates for analysis. Phospho-EGFR ([…]) ELISA. Solid white high-binding ELISA plates (Greiner #781074) were coated with 5 ug/ml anti-EGFR capture antibody (R&D Systems #AF231) overnight in 50 mM carbonate/bicarbonate pH 9.5 buffer. Plates were blocked with 1% BSA (Sigma #A7030) in PBS for 1 hour at room temperature. Wash steps were carried out with a Bio-Tek ELx405 SelectTM using 4 cycles of 100 ul TBS-T (20 mM Tris, 137 mM NaCl, 0.05% Tween-20) per well. […] Lysis was allowed to occur for 20 minutes on ice. A 25 ul aliquot was added to each well of the blocked ELISA plate and incubated overnight at 4° C. with gentle shaking. […] After washing, 1:2,000 anti-rabbit-HRP (Cell Signaling #7074) in 0.2% BSA/TBS-T was added and incubated for 1 hour at room temperature. Chemiluminescent detection was carried out with SuperSignal ELISA Pico substrate (ThermoScientific #37069). Signal was read on EnVision plate reader using built-in UltraLUM setting. Data Analysis. Control cells treated with EGF were set to 100% maximum response. […] With these parameters, the IC50's for each compound in each cell line was calculated using non-linear curve fitting analysis.

HEKn (EGFR WT) = HEKn (EGFR WT) (Homo sapiens, UniProt P00533); assay: EGFR target modulation in HEKn (EGFR-WT) cell line (phospho-EGFR Y1173 ELISA); format: cell-based; conditions: value outside parentheses
In short: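 Read-out was Y1173 phosphorylation, measured by chemiluminescent ELISA with anti-EGFR capture of lysates. HEKn keratinocytes (wild-type EGFR) were treated with compound for 3 h.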

[1] = molecular target: human EGFR WT (NIH/3T3 cells, EGF-induced) (Homo sapiens, UniProt P00533); assay: EGFR target modulation in engineered NIH/3T3 cell lines (phospho-EGFR Y1068 AlphaLISA), EGFR WT; format: cell-based; conditions: engineered NIH/3T3 cells, read-out: NIH3T3 IC50 (μM) EGFR (WT)
In short: (§2)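 Read-out is phospho-Y1068 AlphaLISA on cell lysates, with anti-total EGFR at 1 nM final equilibrated 1 h at room temperature. Cells were dosed 3 h with a 12-point 1:3 series starting from a 10 μM stock. Only the WT line received 50 ng/ml EGF for 5 min.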

[2] = molecular target: human EGFR L858R (NIH/3T3 cells) (Homo sapiens, UniProt P00533, L858R); assay: EGFR target modulation in engineered NIH/3T3 cell lines (phospho-EGFR Y1068 AlphaLISA), EGFR L858R; format: cell-based; conditions: engineered NIH/3T3 cells, read-out: NIH3T3 IC50 (μM) EGFR (L858R)
In short: as §2

[3] = molecular target: human EGFR L858R/T790M (NIH/3T3 cells) (Homo sapiens, UniProt P00533, L858R/T790M); assay: EGFR target modulation in engineered NIH/3T3 cell lines (phospho-EGFR Y1068 AlphaLISA), EGFR L858R/T790M; format: cell-based; conditions: engineered NIH/3T3 cells, read-out: NIH3T3 IC50 (μM) EGFR (L858R/T790M)
In short: as §2

[4] = EGFR (L858R/T790M) with 90 min pre-incubation, read-out: IC50 (μM) Column B
[5] = EGFR (L858R/T790M) with no pre-incubation, read-out: IC50 (μM) Column A

human EGFR L858R/T790M (NIH/3T3 cells), sequence (P00533 25-1210 T790M/L858R): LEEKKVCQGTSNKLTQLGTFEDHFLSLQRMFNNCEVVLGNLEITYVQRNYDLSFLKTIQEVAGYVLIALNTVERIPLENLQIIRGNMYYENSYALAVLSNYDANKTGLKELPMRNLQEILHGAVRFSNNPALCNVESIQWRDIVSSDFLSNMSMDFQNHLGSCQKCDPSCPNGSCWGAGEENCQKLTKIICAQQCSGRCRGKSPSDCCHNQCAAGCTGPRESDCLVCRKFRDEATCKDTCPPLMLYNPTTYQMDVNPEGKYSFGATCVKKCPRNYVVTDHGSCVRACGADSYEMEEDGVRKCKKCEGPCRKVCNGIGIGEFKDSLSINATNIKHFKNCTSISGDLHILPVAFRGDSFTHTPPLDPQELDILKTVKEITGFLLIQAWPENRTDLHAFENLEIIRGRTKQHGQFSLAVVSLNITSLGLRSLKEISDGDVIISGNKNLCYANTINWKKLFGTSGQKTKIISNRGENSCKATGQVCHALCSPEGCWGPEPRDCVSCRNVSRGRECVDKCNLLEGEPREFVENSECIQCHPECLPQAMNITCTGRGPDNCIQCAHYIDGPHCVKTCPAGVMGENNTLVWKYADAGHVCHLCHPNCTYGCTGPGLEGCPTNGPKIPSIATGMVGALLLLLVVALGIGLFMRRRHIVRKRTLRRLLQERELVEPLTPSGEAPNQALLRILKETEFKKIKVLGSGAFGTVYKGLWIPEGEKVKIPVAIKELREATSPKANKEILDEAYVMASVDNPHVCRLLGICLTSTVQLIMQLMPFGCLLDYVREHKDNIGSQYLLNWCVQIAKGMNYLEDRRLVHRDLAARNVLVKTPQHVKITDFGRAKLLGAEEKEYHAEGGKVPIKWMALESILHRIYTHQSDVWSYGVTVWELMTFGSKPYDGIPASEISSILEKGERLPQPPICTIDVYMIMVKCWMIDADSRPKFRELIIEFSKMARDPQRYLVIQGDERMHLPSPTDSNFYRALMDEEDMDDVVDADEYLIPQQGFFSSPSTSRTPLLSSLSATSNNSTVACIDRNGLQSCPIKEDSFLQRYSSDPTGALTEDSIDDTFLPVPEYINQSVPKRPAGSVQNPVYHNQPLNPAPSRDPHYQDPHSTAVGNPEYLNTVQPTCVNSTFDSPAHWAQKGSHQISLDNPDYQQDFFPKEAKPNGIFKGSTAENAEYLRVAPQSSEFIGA
H1975 (EGFR L858/T790M), sequence (P00533 25-1210 T790M/L858R): as above
T1 sequence (P00533 669-1210 T790M/L858R): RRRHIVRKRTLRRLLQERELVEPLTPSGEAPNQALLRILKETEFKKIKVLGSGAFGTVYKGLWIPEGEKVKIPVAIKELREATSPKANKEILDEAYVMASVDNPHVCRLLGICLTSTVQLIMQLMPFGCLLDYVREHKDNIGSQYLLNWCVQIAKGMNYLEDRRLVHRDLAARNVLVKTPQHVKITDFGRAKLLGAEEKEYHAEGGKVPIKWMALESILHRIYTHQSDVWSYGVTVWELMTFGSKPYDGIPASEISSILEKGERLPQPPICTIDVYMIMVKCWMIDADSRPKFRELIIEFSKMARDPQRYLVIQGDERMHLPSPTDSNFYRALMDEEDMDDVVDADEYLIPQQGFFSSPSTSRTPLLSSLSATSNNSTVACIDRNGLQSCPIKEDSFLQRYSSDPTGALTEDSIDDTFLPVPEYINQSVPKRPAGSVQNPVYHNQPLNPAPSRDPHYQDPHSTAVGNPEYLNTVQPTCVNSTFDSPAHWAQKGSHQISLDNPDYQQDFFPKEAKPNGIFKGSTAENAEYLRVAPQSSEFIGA
H3255 (EGFR L858R), sequence (P00533 25-1210 L858R): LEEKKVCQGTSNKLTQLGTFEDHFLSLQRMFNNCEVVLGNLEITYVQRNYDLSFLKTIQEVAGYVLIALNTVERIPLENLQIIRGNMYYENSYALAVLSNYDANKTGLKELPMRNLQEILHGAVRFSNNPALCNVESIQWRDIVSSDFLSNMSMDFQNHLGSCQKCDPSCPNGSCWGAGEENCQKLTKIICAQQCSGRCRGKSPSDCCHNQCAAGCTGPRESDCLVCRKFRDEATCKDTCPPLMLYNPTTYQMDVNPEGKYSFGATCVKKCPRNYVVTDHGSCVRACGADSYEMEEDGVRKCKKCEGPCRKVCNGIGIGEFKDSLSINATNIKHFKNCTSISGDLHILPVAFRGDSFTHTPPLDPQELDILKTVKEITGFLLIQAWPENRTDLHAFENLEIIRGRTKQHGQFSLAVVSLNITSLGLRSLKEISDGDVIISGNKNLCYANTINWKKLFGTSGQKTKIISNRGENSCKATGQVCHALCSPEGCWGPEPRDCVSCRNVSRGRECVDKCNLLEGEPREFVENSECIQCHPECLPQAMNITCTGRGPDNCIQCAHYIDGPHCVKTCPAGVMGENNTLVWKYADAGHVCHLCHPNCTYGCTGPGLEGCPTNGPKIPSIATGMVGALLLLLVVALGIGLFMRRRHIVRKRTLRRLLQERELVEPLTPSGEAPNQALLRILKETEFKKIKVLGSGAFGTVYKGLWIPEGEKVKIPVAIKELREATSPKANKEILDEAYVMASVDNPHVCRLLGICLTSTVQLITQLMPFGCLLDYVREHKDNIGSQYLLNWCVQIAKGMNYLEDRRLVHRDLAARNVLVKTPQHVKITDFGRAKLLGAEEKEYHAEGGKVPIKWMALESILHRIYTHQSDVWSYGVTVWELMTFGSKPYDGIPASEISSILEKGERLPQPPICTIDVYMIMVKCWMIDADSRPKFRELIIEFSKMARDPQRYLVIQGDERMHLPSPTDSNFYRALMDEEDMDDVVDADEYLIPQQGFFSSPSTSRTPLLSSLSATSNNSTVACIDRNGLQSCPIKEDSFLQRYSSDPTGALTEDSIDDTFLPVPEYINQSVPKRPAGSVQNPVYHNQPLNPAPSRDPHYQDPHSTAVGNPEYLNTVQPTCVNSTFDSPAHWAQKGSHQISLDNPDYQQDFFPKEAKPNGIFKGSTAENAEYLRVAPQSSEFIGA

IC50 (EGFR(L858R/T790M); [4]) | IC50 (EGFR(L858R/T790M); [5]) | IC50 (H1975 (EGFR L858/T790M)) | IC50 (H3255 (EGFR L858R)) | IC50 (HCC827 (Del E746-A750)) | IC50 (HEKn (EGFR WT)) | IC50 [1] | IC50 [2] | IC50 [3] | Compound
< 0.001 µM | 0.009 µM | 9 nM | 10 nM | 4 nM | 194 nM |  |  |  | O=C(Nc1nc2cccc(Cl)c2n1[C@@H]1CCCCN(C(=O)/C=C/CN2CCCC2)C1)c1ccnnc1 [Example 3-8]
< 0.001 µM | 0.008 µM | 7 nM | 12 nM | 5 nM | 590 nM |  |  |  | Cc1cc(C(=O)Nc2nc3cccc(C)c3n2[C@@H]2CCCCN(C(=O)/C=C/CN3CCCC3)C2)ccn1 [Example 3-9]
< 0.001 µM | 0.007 µM | 10 nM | 29 nM |  | 370 nM | 0.187 µM | 0.007 µM | 0.007 µM | Cc1cc(C(=O)Nc2nc3cccc(C)c3n2[C@@H]2CCCCN(C(=O)/C=C/CN(C)C)C2)cnn1 [Example 17-82]
0.001 µM | 0.02 µM | 29 nM | 72 nM |  | 2330 nM | 0.6 µM | 0.022 µM | 0.027 µM | COc1cccc2nc(NC(=O)c3ccnnc3)n([C@@H]3CCCCN(C(=O)/C=C/CN(C)C)C3)c12 [Example 17-83]
0.003 µM | 0.049 µM | 37 nM | 137 nM |  | 1660 nM | 1.94 µM | 0.04 µM | 0.028 µM | C=CC(=O)N1CCCC[C@@H](n2c(NC(=O)c3ccnnc3)nc3cccc(OC)c32)C1 [Example 17-84]
0.003 µM | 0.038 µM | 38 nM | 111 nM |  | 2080 nM | 0.6 µM | 0.043 µM | 0.02 µM | CC(C)Oc1cccc2nc(NC(=O)c3ccnnc3)n([C@@H]3CCCCN(C(=O)/C=C/CN(C)C)C3)c12 [Example 17-85]
0.004 µM | 0.04 µM | 12 nM | 57 nM |  | 710 nM | 0.45 µM | 0.03 µM | 0.008 µM | C=CC(=O)N1CCCC[C@@H](n2c(NC(=O)c3ccnnc3)nc3cccc(OC(C)C)c32)C1 [Example 17-86]
< 0.001 µM | < 0.001 µM | 2 nM | < 1 nM |  | 37 nM | 0.013 µM | < 0.001 µM | < 0.001 µM | Cc1cccc2nc(NC(=O)c3ccnnc3)n([C@@H]3CCCCN(C(=O)C#CCN(C)C)C3)c12 [Example 17-87]
< 0.001 µM | 0.002 µM | 1 nM | 2 nM |  | 45 nM | 0.031 µM | 0.001 µM | < 0.001 µM | C=CC(=O)N1CCCC[C@@H](n2c(NC(=O)c3ccnnc3)nc3cccc(C)c32)C1 [Example 17-94]
< 0.001 µM | 0.002 µM | 3 nM | 3 nM |  | 127 nM | 0.026 µM | 0.002 µM | 0.002 µM | Cc1cccc2nc(NC(=O)c3ccnnc3)n([C@@H]3CCCCN(C(=O)/C=C/CN(C)C)C3)c12 [Example 17-95]
0.005 µM | 0.048 µM | 14 nM | 44 nM |  | > 10000 nM | > 10 µM | 0.306 µM | 0.021 µM | C=CC(=O)N1CCC[C@@H](n2c(NC(=O)c3ccccc3)nc3cccc(C)c32)C1 [Example 17-108]
< 0.001 µM | 0.025 µM | 14 nM | 43 nM |  | 1680 nM | 0.88 µM | 0.032 µM | 0.028 µM | C=CC(=O)N1CCC[C@@H](n2c(NC(=O)c3ccnc(C)c3)nc3cccc(C)c32)C1 [Example 17-109]
< 0.001 µM | 0.004 µM | < 1 nM | 8 nM |  | 203 nM | 0.047 µM | 0.003 µM | 0.001 µM | C=CC(=O)N1CCCC[C@@H](n2c(NC(=O)c3ccccc3)nc3cc(CN4CCCC4)cc(C)c32)C1 [Example 17-111]
< 0.001 µM | 0.001 µM | < 1 nM | 4 nM |  | 100 nM | 0.143 µM | 0.002 µM | < 0.001 µM | C=CC(=O)N1CCCC[C@@H](n2c(NC(=O)c3ccccc3)nc3cccc(CN4CCC(O)C4)c32)C1 (some centres unmarked) [Example 17-114]
0.005 µM | 0.68 µM | 640 nM | > 10000 nM |  | > 10000 nM | > 10 µM | 0.156 µM | 0.005 µM | C=CC(=O)N1CCC[C@@H](n2c(NC(=O)c3cccc(C(F)(F)F)c3)nc3cc(CN4CCCCC4)ccc32)C1 [Example 17-118]
0.008 µM | 0.2 µM | 22 nM | 490 nM |  | > 10000 nM | > 10 µM | 0.271 µM | 0.023 µM | C=CC(=O)N1CCC[C@@H](n2c(NC(=O)c3cccc(C(F)(F)F)c3)nc3cc(COCCOC)ccc32)C1 [Example 17-124]
< 0.001 µM | 0.002 µM | 1 nM | 4 nM |  | 28 nM | 0.045 µM | 0.002 µM | 0.002 µM | C=CC(=O)N1CCCC[C@@H](n2c(NC(=O)c3ccccc3)nc3cccc(CN(C)C)c32)C1 [Example 17-129]
0.001 µM | 0.041 µM | 9 nM | 108 nM |  | 2850 nM | 2.87 µM | 0.047 µM | 0.012 µM | C=CC(=O)N1CCCC[C@@H](n2c(NC(=O)c3ccccc3)nc3cccc(CN4CCS(=O)(=O)CC4)c32)C1 [Example 17-132]
0.01 µM | 0.32 µM | 105 nM | 640 nM |  | > 10000 nM | 5.2 µM | 0.34 µM | 0.09 µM | Cc1noc(-c2cccc3nc(NC(=O)c4ccccc4)n(C4COCCN(C(=O)/C=C/CN(C)C)C4)c23)n1 (centres unmarked) [Example 17-142]
< 0.001 µM | 0.008 µM | 8 nM | 9 nM |  | 269 nM | 0.281 µM | 0.006 µM | 0.009 µM | C=CC(=O)N1CCCC[C@@H](n2c(NC(=O)c3cnnc(C)c3)nc3cc(CN4CCCC4)cc(C)c32)C1 [Example 17-161]
0.01 µM | 0.218 µM | 168 nM | 2020 nM |  | > 10000 nM | > 10 µM | 0.226 µM | 0.026 µM | C=CC(=O)N1CCC[C@@H](n2c(NC(=O)c3cccc(C(F)(F)F)c3)nc3cc(C(N)=O)ccc32)C1 [Example 19, (R)-1-(1-acryloylpiperidin-3-yl)-2-(3-(trifluoromethyl)benzamido)-1H-benzo[d]imidazole-5-carboxamide]
